Reference: patent publication US20230322767A1, “ARYL SUBSTITUTED PYRROLO-PYRIDINONES AND THERAPEUTIC USES THEREOF” (Bayer Aktiengesellschaft, priority 2020, published 2023)
“And” between values parts separate entries of the source, which are not always exact repeats. Equal values may be shown once.

Molecular target: wild-type Epidermal Growth Factor Receptor (EGFR) (Homo sapiens (Human), UniProt P00533)
Assay: WT-EGFR Kinase Assay (TR-FRET, 2 mM ATP)
Assay type: biochemical
Conditions: EGFR Wildtyp 2 mM ATP IC50 [mol/l] (median), median or individual measurements
Source text: Inhibitory activity of compounds of the present invention against wild-type Epidermal Growth Factor Receptor (EGFR) was quantified employing the TR-FRET based EGFR assay as described in the following paragraphs.
Recombinant fusion protein of N-terminal Glutathion-S-Transferase (GST) and a fragment of human EGFR (amino acids R669 to A1210), expressed in Sf9 insect cells and purified via affinity chromatography using Glutathion Sepharose as described above, was used as kinase. As substrate for the kinase reaction the biotinylated peptide biotin-Ahx-[…] (C-terminus in amide form) was used which can be purchased e.g. form the company Biosynthan GmbH (Berlin-Buch, Germany).
For the assay 50 nl of a 100 fold concentrated solution of the test compound in DMSO was pipetted into either a black low volume 384 well microtiter plate or a black 1536 well microtiter plate (both Greiner Bio-One, Frickenhausen, Germany), 2 μL of a solution of EGFR in aqueous assay buffer [50 mM Hepes pH 7.0, 10 mM MgCl2, 1 mM dithiothreitol, 0.5 mM EGTA, 0.3 mM activated sodium ortho-vanadate, 0.005% (w/v) bovine serum albumin, 0.005% (v/v) Tween-20] were added and the mixture was incubated for 15 min at 22° C. to allow pre-binding of the test compounds to the enzyme before the start of the kinase reaction. […] The concentration of EGFR was adjusted depending of the activity of the enzyme lot and was chosen appropriate to have the assay in the linear range, typical concentration was […]. The reaction was stopped by the addition of 3 μL of a solution of HTRF detection reagents (83.3 nM streptavidine-XL665 [Cisbio Bioassays, Codolet, France] and 1.67 nM PT66-Tb-Cryptate, a terbium-cryptate labelled anti-phospho-tyrosine antibody from Cisbio Bioassays [instead of the PT66-Tb-cryptate PT66-Eu-Chelate from Perkin Elmer can also be used]) in an aqueous EDTA-solution (133.3 mM EDTA, 0.2% (w/v) bovine serum albumin in 50 mM HEPES pH 7.5).
The resulting mixture was incubated 1 h at 22° C. to allow the binding of the biotinylated phosphorylated peptide to the streptavidine-XL665 and the PT66-Tb-Cryptate. Subsequently the amount of phosphorylated substrate was evaluated by measurement of the resonance energy transfer from the PT66-Tb-Cryptate to the streptavidine-XL665. Therefore, the fluorescence emissions at 620 nm and 665 nm after excitation at 337 nm were measured in a HTRF reader, e.g. a Pherastar (BMG Labtechnologies, Offenburg, Germany) or a Viewlux (Perkin-Elmer). The ratio of the emissions at 665 nm and at 622 nm was taken as the measure for the amount of phosphorylated substrate.

Chain of wild-type Epidermal Growth Factor Receptor (EGFR) (P00533 669-1210): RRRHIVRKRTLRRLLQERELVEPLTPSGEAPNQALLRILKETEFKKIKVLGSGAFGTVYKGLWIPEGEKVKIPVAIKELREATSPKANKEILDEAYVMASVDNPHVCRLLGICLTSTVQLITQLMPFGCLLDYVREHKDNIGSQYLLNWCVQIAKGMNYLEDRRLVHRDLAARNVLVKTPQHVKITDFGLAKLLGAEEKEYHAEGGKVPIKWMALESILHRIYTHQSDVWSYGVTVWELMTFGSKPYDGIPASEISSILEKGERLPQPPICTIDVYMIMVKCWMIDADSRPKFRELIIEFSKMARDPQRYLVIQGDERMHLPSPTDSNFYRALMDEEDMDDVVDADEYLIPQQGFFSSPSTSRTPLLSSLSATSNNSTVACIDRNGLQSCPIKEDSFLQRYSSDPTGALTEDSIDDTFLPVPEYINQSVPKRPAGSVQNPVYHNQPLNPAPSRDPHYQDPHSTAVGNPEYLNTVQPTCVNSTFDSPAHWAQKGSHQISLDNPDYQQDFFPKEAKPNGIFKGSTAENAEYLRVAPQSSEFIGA

Structure (SMILES) | IC50
CN1CCc2[nH]c(-c3ccnc(NC(=O)C(CC(F)F)c4ccc(F)cc4)c3)c(-c3ccccc3)c2C1=O (racemic) [Example 002, 4,4-difluoro-2-(4-fluorophenyl)-N-[4-(5-methyl-4-oxo-3-phenyl-4,5,6,7-tetrahydro-1H-pyrrolo[3,2-c]pyridin-2-yl)pyridin-2-yl]butanamide] | > 20 µM
Cn1ccc2[nH]c(-c3ccnc(NC(=O)C(CC(F)F)c4ccc(F)cc4)c3)c(-c3ccccc3)c2c1=O (racemic) [Example 006, 4,4-difluoro-2-(4-fluorophenyl)-N-[4-(5-methyl-4-oxo-3-phenyl-4,5-dihydro-1H-pyrrolo[3,2-c]pyridin-2-yl)pyridin-2-yl]butanamide] | > 20 µM
CN1CCc2[nH]c(-c3ccnc(NC(=O)C(CC(F)F)c4ccc(F)cc4)c3)c(-c3cccnc3)c2C1=O (racemic) [Example 009, 4,4-difluoro-2-(4-fluorophenyl)-N-{4-[5-methyl-4-oxo-3-(pyridin-3-yl)-4,5,6,7-tetrahydro-1H-pyrrolo[3,2-c]pyridin-2-yl]pyridin-2-yl}butanamide] | > 20 µM
CC(C(=O)Nc1cc(-c2[nH]c3c(CC(F)(F)F)cn(C)c(=O)c3c2-c2ccccc2)ccn1)c1ccc(F)cc1 (racemic) [Example 014, 2-(4-fluorophenyl)-N-{4-[5-methyl-4-oxo-3-phenyl-7-(2,2,2-trifluoroethyl)-4,5-dihydro-1H-pyrrolo[3,2-c]pyridin-2-yl]pyridin-2-yl}propanamide] | > 20 µM
Cn1cc(CC(F)(F)F)c2[nH]c(-c3ccnc(NC(=O)C(CC(F)F)c4ccc(F)cc4)c3)c(-c3ccccc3)c2c1=O (racemic) [Example 018, 4,4-difluoro-2-(4-fluorophenyl)-N-{4-[5-methyl-4-oxo-3-phenyl-7-(2,2,2-trifluoroethyl)-4,5-dihydro-1H-pyrrolo[3,2-c]pyridin-2-yl]pyridin-2-yl}butanamide] | > 20 µM
CC(C(=O)Nc1cc(-c2[nH]c3c(CC(F)(F)F)cn(C)c(=O)c3c2-c2ccc(F)cc2)ccn1)c1ccc(F)cc1 (racemic) [Example 022, 2-(4-fluorophenyl)-N-{4-[3-(4-fluorophenyl)-5-methyl-4-oxo-7-(2,2,2-trifluoroethyl)-4,5-dihydro-1H-pyrrolo[3,2-c]pyridin-2-yl]pyridin-2-yl}propanamide] | > 20 µM
Cn1cc(CC(F)(F)F)c2[nH]c(-c3ccnc(NC(=O)C(CC(F)F)c4ccc(F)cc4)c3)c(-c3ccc(F)cc3)c2c1=O (racemic) [Example 026, 4,4-difluoro-2-(4-fluorophenyl)-N-{4-[3-(4-fluorophenyl)-5-methyl-4-oxo-7-(2,2,2-trifluoroethyl)-4,5-dihydro-1H-pyrrolo[3,2-c]pyridin-2-yl]pyridin-2-yl}butanamide] | > 20 µM
Cc1cn(C)c(=O)c2c(-c3ccc(F)cc3)c(-c3ccnc(NC(=O)C(C)c4ccc(F)cc4)c3)[nH]c12 (racemic) [Example 030, 2-(4-fluorophenyl)-N-{4-[3-(4-fluorophenyl)-5,7-dimethyl-4-oxo-4,5-dihydro-1H-pyrrolo[3,2-c]pyridin-2-yl]pyridin-2-yl}propanamide] | > 20 µM
Cc1cn(C)c(=O)c2c(-c3ccc(F)cc3)c(-c3ccnc(NC(=O)C(CC(F)F)c4ccc(F)cc4)c3)[nH]c12 (racemic) [Example 034, 4,4-difluoro-2-(4-fluorophenyl)-N-{4-[3-(4-fluorophenyl)-5,7-dimethyl-4-oxo-4,5-dihydro-1H-pyrrolo[3,2-c]pyridin-2-yl]pyridin-2-yl}butanamide] | > 20 µM
Cc1cn(C)c(=O)c2c(-c3ccccc3)c(-c3ccnc(NC(=O)C(C)c4ccc(F)cc4)c3)[nH]c12 (racemic) [Example 038, N-[4-(5,7-dimethyl-4-oxo-3-phenyl-4,5-dihydro-1H-pyrrolo[3,2-c]pyridin-2-yl)pyridin-2-yl]-2-(4-fluorophenyl)propanamide] | > 20 µM
Cc1cn(C)c(=O)c2c(-c3ccccc3)c(-c3ccnc(NC(=O)C(CC(F)F)c4ccc(F)cc4)c3)[nH]c12 (racemic) [Example 040, N-[4-(5,7-dimethyl-4-oxo-3-phenyl-4,5-dihydro-1H-pyrrolo[3,2-c]pyridin-2-yl)pyridin-2-yl]-4,4-difluoro-2-(4-fluorophenyl)butanamide] | > 20 µM
CC1(C)CNC(=O)c2c1[nH]c(-c1ccnc(NC(=O)C(CC(F)F)c3ccc(F)cc3)c1)c2-c1ccccc1 (racemic) [Example 043, N-[4-(7,7-dimethyl-4-oxo-3-phenyl-4,5,6,7-tetrahydro-1H-pyrrolo[3,2-c]pyridin-2-yl)pyridin-2-yl]-4,4-difluoro-2-(4-fluorophenyl)butanamide] | > 20 µM
CC(C(=O)Nc1cc(-c2[nH]c3c(c2-c2ccccc2)C(=O)NCC3(C)C)ccn1)c1ccc(F)cc1 (racemic) [Example 046, N-[4-(7,7-dimethyl-4-oxo-3-phenyl-4,5,6,7-tetrahydro-1H-pyrrolo[3,2-c]pyridin-2-yl)pyridin-2-yl]-2-(4-fluorophenyl)propanamide] | > 20 µM
CN1C(=O)c2c([nH]c(-c3ccnc(NC(=O)C(CC(F)F)c4ccc(F)cc4)c3)c2-c2ccccc2)CC12CCC2 (racemic) [Example 049, 4,4-difluoro-2-(4-fluorophenyl)-N-[4-(5′-methyl-4′-oxo-3′-phenyl-1′,4′,5′,7′-tetrahydrospiro[cyclobutane-1,6′-pyrrolo[3,2-c]pyridin]-2′-yl)pyridin-2-yl]butanamide] | > 20 µM
CC(C(=O)Nc1cc(-c2[nH]c3c(c2-c2ccccc2)C(=O)N(C)C2(CCC2)C3)ccn1)c1ccc(F)cc1 (racemic) [Example 052, 2-(4-fluorophenyl)-N-[4-(5′-methyl-4′-oxo-3′-phenyl-1′,4′,5′,7′-tetrahydrospiro[cyclobutane-1,6′-pyrrolo[3,2-c]pyridin]-2′-yl)pyridin-2-yl]propanamide] | > 20 µM
CN1CC(CC2CC2)c2[nH]c(-c3ccnc(NC(=O)Cc4ccc(F)cc4)c3)c(-c3ccccc3)c2C1=O (racemic) [Example 055, N-{4-[7-(cyclopropylmethyl)-5-methyl-4-oxo-3-phenyl-4,5,6,7-tetrahydro-1H-pyrrolo[3,2-c]pyridin-2-yl]pyridin-2-yl}-2-(4-fluorophenyl)acetamide] | 3.43 µM
CC(C(=O)Nc1cc(-c2[nH]c3c(CC4CC4)cn(C)c(=O)c3c2-c2ccccc2)ccn1)c1ccc(F)cc1 (racemic) [Example 058, N-{4-[7-(cyclopropylmethyl)-5-methyl-4-oxo-3-phenyl-4,5-dihydro-1H-pyrrolo[3,2-c]pyridin-2-yl]pyridin-2-yl}-2-(4-fluorophenyl)propanamide] | > 20 µM
Cn1cc(CC2CC2)c2[nH]c(-c3ccnc(NC(=O)C(CC(F)F)c4ccc(F)cc4)c3)c(-c3ccccc3)c2c1=O (racemic) [Example 060, N-{4-[7-(cyclopropylmethyl)-5-methyl-4-oxo-3-phenyl-4,5-dihydro-1H-pyrrolo[3,2-c]pyridin-2-yl]pyridin-2-yl}-4,4-difluoro-2-(4-fluorophenyl)butanamide] | > 20 µM
CN1CC(CC2CC2)c2[nH]c(-c3ccnc(NC(=O)Cc4ccc(F)cc4)c3)c(-c3ccc(F)cc3)c2C1=O (racemic) [Example 061, N-{4-[7-(cyclopropylmethyl)-3-(4-fluorophenyl)-5-methyl-4-oxo-4,5,6,7-tetrahydro-1H-pyrrolo[3,2-c]pyridin-2-yl]pyridin-2-yl}-2-(4-fluorophenyl)acetamide] | 0.818 µM
CC(C(=O)Nc1cc(-c2[nH]c3c(CC4CC4)cn(C)c(=O)c3c2-c2ccc(F)cc2)ccn1)c1ccc(F)cc1 (racemic) [Example 063, N-{4-[7-(cyclopropylmethyl)-3-(4-fluorophenyl)-5-methyl-4-oxo-4,5-dihydro-1H-pyrrolo[3,2-c]pyridin-2-yl]pyridin-2-yl}-2-(4-fluorophenyl)propanamide] | > 20 µM
Cn1ccc2[nH]c(-c3ccnc(NC(=O)C(CC(F)F)c4ccc(F)cc4)c3)c(-c3ccccc3)c2c1=O (single isomer, unassigned) [Example 007, 4,4-difluoro-2-(4-fluorophenyl)-N-[4-(5-methyl-4-oxo-3-phenyl-4,5-dihydro-1H-pyrrolo[3,2-c]pyridin-2-yl)pyridin-2-yl]butanamide] | 11.8 µM and 13.4 µM
